20 molecules from patent publication US20250289793A1, “MACROCYCLIC INHIBITORS OF ATP CITRATE LYASE” (Esperion Therapeutics, Inc., priority 2022, published 2025) can be followed below.

Some results are limits rather than exact numbers.

In assay [1] the target is T1, ACLY (Homo sapiens (Human), UniProt P53396). In words: InCell Pulse assay (permeate HEK293 cells, bind to and stabilize ACLY). In kind it is cell-based. Conditions: HEK293 cells transfected with pICP-ACLY(FL)-ePL; 1 hour at 37° C., 55° C. heat pulse 10 minutes; read-out: InCell Pulse IC50 GMean. A digest of the protocol:
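HEK293 cells transiently expressing full-length ACLY-ePL were exposed in OptiMEM to 11-point, 3-fold compound dilutions for 1 h at 37 °C, heat-pulsed 10 min at 55 °C, then lysed for enzyme-fragment complementation luminescence. Four-parameter fit, normalised to 0.5% DMSO and 1 μM NDI-094311.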

The target in assay [2] is T1, ACLY. In words: Human ACLY (hACLY) RF/MS activity assay. The note with it: 1 nM hACLY; 30 min pre-incubation; 15 μM Coenzyme A, 50 μM ATP, 50 μM citrate; CoA to Acetyl-CoA by RF/MS; read-out: RFMS IC50 GMean. The assay is classed as biochemical. The essentials: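 RapidFire MS read CoA-to-acetyl-CoA conversion as a substrate/product ratio after 30 min at RT (20° C) with final 15 μM CoA, 50 μM ATP, 50 μM citrate. Before substrate addition, 1 nM enzyme sat 30 min with compound (top 10 μM, two-fold dilutions; 1% DMSO) in pH 8.0 Hepes/MgCl2/NaCl/DTT buffer.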

T1 sequence (P53396 whole entry, the tested form may be a part): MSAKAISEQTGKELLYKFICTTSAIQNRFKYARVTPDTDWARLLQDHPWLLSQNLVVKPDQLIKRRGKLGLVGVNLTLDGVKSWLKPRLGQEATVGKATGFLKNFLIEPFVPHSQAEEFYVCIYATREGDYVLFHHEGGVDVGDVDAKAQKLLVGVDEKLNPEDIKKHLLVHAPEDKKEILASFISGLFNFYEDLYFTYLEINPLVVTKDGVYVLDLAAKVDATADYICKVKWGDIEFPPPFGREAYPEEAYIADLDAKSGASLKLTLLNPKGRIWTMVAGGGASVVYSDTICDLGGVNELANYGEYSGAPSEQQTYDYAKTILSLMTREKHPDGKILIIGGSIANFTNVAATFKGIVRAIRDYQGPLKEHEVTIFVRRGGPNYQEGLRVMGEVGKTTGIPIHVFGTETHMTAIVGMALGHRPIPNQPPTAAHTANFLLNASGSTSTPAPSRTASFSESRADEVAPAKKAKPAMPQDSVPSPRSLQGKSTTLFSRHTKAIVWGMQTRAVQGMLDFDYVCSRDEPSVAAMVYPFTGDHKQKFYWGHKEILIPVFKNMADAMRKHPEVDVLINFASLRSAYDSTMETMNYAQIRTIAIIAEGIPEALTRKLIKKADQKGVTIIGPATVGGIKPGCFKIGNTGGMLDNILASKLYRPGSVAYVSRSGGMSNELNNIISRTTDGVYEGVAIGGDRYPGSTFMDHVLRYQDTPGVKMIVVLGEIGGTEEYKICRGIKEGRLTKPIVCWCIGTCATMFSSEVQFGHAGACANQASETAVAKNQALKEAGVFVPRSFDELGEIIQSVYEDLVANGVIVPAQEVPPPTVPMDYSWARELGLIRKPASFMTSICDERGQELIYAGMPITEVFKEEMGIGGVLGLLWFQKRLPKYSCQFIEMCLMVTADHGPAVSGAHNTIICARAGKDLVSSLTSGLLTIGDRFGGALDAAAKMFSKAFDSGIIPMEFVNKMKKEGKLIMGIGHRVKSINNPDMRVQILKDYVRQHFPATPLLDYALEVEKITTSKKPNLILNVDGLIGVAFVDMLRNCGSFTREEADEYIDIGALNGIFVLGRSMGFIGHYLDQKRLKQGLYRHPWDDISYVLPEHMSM

As a reminder, the IC50 is the point on the concentration scale where inhibition reaches its midpoint. Turning to `O=C1OCCc2cc(F)ccc2-c2ccc(F)c(c2)NS(=O)(=O)c2cc1cc(Cl)c2O` [Compound 73, 14-chloro-5,20-difluoro-15-hydroxy-17,17-dioxo-10-oxa-17λ6-thia-18-azatetracyclo[17.3.1.112,16.02,7]tetracosa-1(22),2(7),3,5,12,14,16(24),19(23),20-nonaen-11-one], the concentration for half-maximal inhibition (IC50) at ACLY [1] is under 0.3 µM; at ACLY [2], 0.02 to 0.1 µM.
In the same order, the values of `O=C1OCCc2ccc(F)cc2-c2ccc(F)c(c2)NS(=O)(=O)c2cc1cc(Cl)c2O` [Compound 74, 14-chloro-4,20-difluoro-15-hydroxy-17,17-dioxo-10-oxa-17λ6-thia-18-azatetracyclo[17.3.1.112,16.02,7]tetracosa-1(22),2(7),3,5,12(24),13,15,19(23),20-nonaen-11-one] are under 0.3 µM and 0.02 to 0.1 µM.
The like results for `Cc1cc2cc(c1O)S(=O)(=O)Nc1cc(c(F)cc1F)-c1ccccc1CCOC2=O` [Compound 75, 20,22-difluoro-15-hydroxy-14-methyl-17,17-dioxo-10-oxa-17λ6-thia-18-azatetracyclo[17.3.1.112,16.02,7]tetracosa-1(23),2,4,6,12,14,16(24),19,21-nonaen-11-one] were, in that order, 0.3 to 1 µM and 0.1 to 10 µM.
As for `O=C1OCC2CN(C2)c2ccccc2-c2cc(c(F)cc2F)NS(=O)(=O)c2cc1cc(Cl)c2O` [Compound 76, 16-chloro-22,24-difluoro-17-hydroxy-19,19-dioxo-12-oxa-19λ6-thia-8,20-diazapentacyclo[19.3.1.18,10.114,18.02,7]heptacosa-1(25),2,4,6,14,16,18(26),21,23-nonaen-13-one], the concentration for half-maximal inhibition (IC50) at ACLY [1] lay in the range of 1 to 50 µM; on ACLY [2] it was 0.02 to 0.1 µM.
For the molecule `O=S1(=O)Nc2cc(c(F)cc2F)-c2ccccc2OCCn2cnnc2-c2cc(Cl)c(O)c1c2` [Compound 77, 25-chloro-17,19-difluoro-22,22-dioxo-9-oxa-2λ6-thia-3,4,6,21-tetrazapentacyclo[21.3.1.116,20.02,6.010,15]octacosa-1(26),2,4,10,12,14,16(28),17,19,23(27),24-undecaen-24-ol], the half-maximal inhibitory concentration (IC50) was 1 to 50 µM on ACLY [1] and under 0.02 µM on ACLY [2].
In the same order, the values of `O=C1OCc2ccccc2-c2cc(c(F)cc2F)NS(=O)(=O)c2cc1cc(Cl)c2O` [Compound 78, 13-Chloro-19,21-difluoro-14-hydroxy-16,16-dioxo-9-oxa-16λ6-thia-17-azatetracyclo[16.3.1.111,15.02,7]tricosa-1(21),2(7),3,5,11(23),12,14,18(22),19-nonaen-10-one] are under 0.3 µM and under 0.02 µM.
In the same order, the values of `O=C1OCCOc2ccc(F)cc2-c2cc(F)c(F)c(c2)NS(=O)(=O)c2cc1cc(Cl)c2O` [Compound 79, 15-chloro-4,21,22-trifluoro-16-hydroxy-18,18-dioxo-8,11-dioxa-18λ6-thia-19-azatetracyclo[18.3.1.113,17.02,7]pentacosa-1(23),2(7),3,5,13,15,17(25),20(24),21-nonaen-12-one] are under 0.3 µM and under 0.02 µM.
Take `O=C1OCCc2ccccc2-c2cc(F)c(F)c(c2)NS(=O)(=O)c2cc1cc(Cl)c2O` [Compound 80, 14-chloro-20,21-difluoro-15-hydroxy-17,17-dioxo-10-oxa-17λ6-thia-18-azatetracyclo[17.3.1.112,16.02,7]tetracosa-1(23),2,4,6,12,14,16(24),19,21-nonaen-11-one]: the IC50 at ACLY [1] was under 0.3 µM; on ACLY [2], under 0.02 µM.
`O=C1OCc2ccc(F)cc2-c2cc(c(F)cc2F)NS(=O)(=O)c2cc1cc(Cl)c2O` [Compound 81, 13-chloro-4,19,21-trifluoro-14-hydroxy-16,16-dioxo-9-oxa-16λ6-thia-17-azatetracyclo[16.3.1.111,15.02,7]tricosa-1(21),2,4,6,11(23),12,14,18(22),19-nonaen-10-one]: the IC50 was under 0.3 µM on ACLY [1] and under 0.02 µM on ACLY [2].
Take `O=C1OCc2ccccc2-c2cc(F)c(F)c(c2)NS(=O)(=O)c2cc1cc(Cl)c2O` [Compound 82, 13-chloro-19,20-difluoro-14-hydroxy-16,16-dioxo-9-oxa-16λ6-thia-17-azatetracyclo[16.3.1.111,15.02,7]tricosa-1(21),2,4,6,11(23),12,14,18(22),19-nonaen-10-one]: the values for the 50% inhibitory concentration (IC50) at ACLY [1] and on ACLY [2] were under 0.3 µM and under 0.02 µM, respectively.
On to `O=C1OCc2ccc(F)cc2-c2cc(F)c(F)c(c2)NS(=O)(=O)c2cc1cc(Cl)c2O` [Compound 83, 13-chloro-4,19,20-trifluoro-14-hydroxy-16,16-dioxo-9-oxa-16λ6-thia-17-azatetracyclo[16.3.1.111,15.02,7]tricosa-1(21),2,4,6,11,13,15(23),18(22),19-nonaen-10-one], for which the values for the IC50 at ACLY [1] and at ACLY [2] were under 0.3 µM and under 0.02 µM, respectively.
In the same order, the values of `O=C1OCc2ccccc2-c2ccc(F)c(c2)NS(=O)(=O)c2cc1cc(Cl)c2O` [Compound 84, 13-chloro-19-fluoro-14-hydroxy-16,16-dioxo-9-oxa-16λ6-thia-17-azatetracyclo[16.3.1.111,15.02,7]tricosa-1(21),2(7),3,5,11(23),12,14,18(22),19-nonaen-10-one] are under 0.3 µM and 0.1 to 10 µM.
Turning to `N#Cc1ccc2c(c1)COC(=O)c1cc(Cl)c(O)c(c1)S(=O)(=O)Nc1cc-2c(F)cc1F` [Compound 85, 13-chloro-19,21-difluoro-14-hydroxy-10,16,16-trioxo-9-oxa-16λ6-thia-17-azatetracyclo[16.3.1.111,15.02,7]tricosa-1(21),2(7),3,5,11,13,15(23),18(22),19-nonaene-5-carbonitrile], the concentration for half-maximal inhibition (IC50) at ACLY [1] is at least 50 µM; on ACLY [2], under 0.02 µM.
The like results for `N#Cc1ccc2c(c1)-c1cc(c(F)cc1F)NS(=O)(=O)c1cc(cc(Cl)c1O)C(=O)OC2` [Compound 86, 13-chloro-19,21-difluoro-14-hydroxy-10,16,16-trioxo-9-oxa-16λ6-thia-17-azatetracyclo[16.3.1.111,15.02,7]tricosa-1(21),2,4,6,11(23),12,14,18(22),19-nonaene-4-carbonitrile] were, in that order, 0.3 to 1 µM and 0.1 to 10 µM.
The like results for `O=C1OCc2cccnc2-c2cc(c(F)cc2F)NS(=O)(=O)c2cc1cc(Cl)c2O` [Compound 87, 13-chloro-19,21-difluoro-14-hydroxy-16,16-dioxo-9-oxa-16λ6-thia-3,17-diazatetracyclo[16.3.1.111,15.02,7]tricosa-1(21),2(7),3,5,11,13,15(23),18(22),19-nonaen-10-one] were, in that order, at least 50 µM and 0.02 to 0.1 µM.
On to `O=C1OCc2ncccc2-c2cc(c(F)cc2F)NS(=O)(=O)c2cc1cc(Cl)c2O` [Compound 88, 13-chloro-19,21-difluoro-14-hydroxy-16,16-dioxo-9-oxa-16λ6-thia-6,17-diazatetracyclo[16.3.1.111,15.02,7]tricosa-1(21),2(7),3,5,11,13,15(23),18(22),19-nonaen-10-one], for which the half-maximal inhibitory concentration (IC50) on ACLY [1] is at least 50 µM; at ACLY [2], 0.1 to 10 µM.
The like results for `O=C1c2cc(Cl)c(O)c(c2)S(=O)(=O)Nc2cc(c(F)cc2F)-c2cccc3c2CN1C3` [Compound 89, 13-chloro-19,21-difluoro-14-hydroxy-16,16-dioxo-16λ6-thia-9,17-diazapentacyclo[16.3.1.16,9.111,15.02,7]tetracosa-1(21),2(7),3,5,11,13,15(23),18(22),19-nonaen-10-one] were, in that order, at least 50 µM and 0.1 to 10 µM.
Regarding `O=C1NCc2ncccc2-c2cc(c(F)cc2F)NS(=O)(=O)c2cc1cc(Cl)c2O` [Compound 90, 13-chloro-19,21-difluoro-14-hydroxy-16,16-dioxo-16λ6-thia-6,9,17-triazatetracyclo[16.3.1.111,15.02,7]tricosa-1(22),2,4,6,11,13,15(23),18,20-nonaen-10-one], the half-inhibitory concentration (IC50) is at least 50 µM at ACLY [1] and 0.1 to 10 µM at ACLY [2].
Turning to `CN1Cc2ccccc2-c2cc(c(F)cc2F)NS(=O)(=O)c2cc(cc(Cl)c2O)C1=O` [Compound 91, 13-chloro-19,21-difluoro-14-hydroxy-9-methyl-16,16-dioxo-16λ6-thia-9,17-diazatetracyclo[16.3.1.111,15.02,7]tricosa-1(22),2,4,6,11(23),12,14,18,20-nonaen-10-one], the IC50 on ACLY [1] was at least 50 µM; at ACLY [2], 0.1 to 10 µM.
In the same order, the values of `O=S1(=O)Nc2cc(ccc2F)-c2ccccc2CCCOCc2cc(Cl)c(O)c1c2` [Compound 92, 15-chloro-21-fluoro-18,18-dioxo-11-oxa-18λ6-thia-19-azatetracyclo[18.3.1.113,17.02,7]pentacosa-1(24),2,4,6,13,15,17(25),20,22-nonaen-16-ol] are 1 to 50 µM and 0.1 to 10 µM.
